Literature values, collected in patent US20060002865A1, “Stable baking soda/peroxide with calcium and phosphate whitening product” (priority 2004, published 2006).
One block for each molecule: values may come before it.

Columns and labels:
[1] = aqueous solution, pH about 7.0, about 25° C.

- solubility in water: about 2.5%
Molecule: Sodium perborate

- solubility in water (in words): essentially insoluble
Molecule: [Mg+2].[O-][O-] [Magnesium peroxide]

Molecule: O.O.O=P([O-])([O-])O.[Ca+2] [dicalcium phosphate dihydrate]
- calcium cations released [1]: about 40 ppm
